Results: patent US20080279848A1, “Methods of treating lupus using CD4 antibodies” (GENENTECH, INC., priority 2006, published 2008)

What was measured:
[1] = system: NZBxW F1 mice (spontaneous lupus-like kidney disease); assay: NZBxW F1 preclinical model of SLE, treatment initiated at 9 months of age (severe disease), CD4 antibody and MMF
Description: (§1) Proteinuria was measured using a Clinitek® 50 Urine Chemistry Analyzer (Bayer Corporation, Elkhart, Ind., USA). A drop of freshly collected urine was placed on a reagent strip (Multistix® 10 SG, Bayer), and the strip was immediately inserted into the analyzer after removal of excess urine by blotting with a clean gauze sponge.
Numbers of activated CD4+ T cells found in spleen were determined by flow cytometry as follows. Whole spleens were harvested and crushed into single cell suspensions, which were then red blood cell lysed using EL buffer (erythrocyte lysis buffer, from Qiagen, Valencia, Calif., catalog number 79217), passed through a 70 micron cell strainer, and then resuspended for cell counts. A fixed volume of each cell suspension was mixed with a fluorescent bead (Polysciences, Inc., catalog number 18862) solution of known concentration. The mixture was then run on a FACScan™ flow cytometer from BD Biosciences (Franklin Lakes, N.J.). By collecting a fixed number of beads for each mixture, the total number of live cells could be calculated and subsequently used to determine total numbers of cell subpopulations for the spleen of each mouse after further FACS analysis.
Treatment of NZB×NZW mice was initiated at 9 months of age. Mice were screened for proteinuria and randomized into groups based on their proteinuria scores. […] Mice were monitored for changes in proteinuria (urinalysis was performed as described above in Example 1), disease progression, and survival. […] MMF was given IP at either 25 mg/kg daily or 50 mg/kg daily (alone or in combination with the CD4 antibody).
CD4^+ T cell and B2 B cell numbers were determined by flow cytometry basically as described above, using antibodies to identify the various cell populations and then using the percentage of each population represented (of total lymphocytes) multiplied by the total number of lymphocytes to determine the number of each population. B2 cells (the majority of B cells) were identified by positive staining for B220 (CD45) and CD38. Anti-B220/CD45 and anti-CD38 were from BD Pharmingen.
Comparisons were performed using Dunnett's method with the control antibody treated group as the reference control group (designated in bold), and only p values for groups that achieve statistical significance vs. the reference control are designated on the graph.

[2] = system: NZBxW F1 mice (spontaneous lupus-like kidney disease); assay: NZBxW F1 preclinical model of SLE, treatment initiated at 8 months of age (moderate-severe disease); assay type: in vivo, mouse; conditions: over time after treatment; CTX 50 mg/kg IP every 10 days; FIG. 7A
Description: The control antibody was an irrelevant mouse IgG1 antibody (a mouse antibody was used for the control since an irrelevant rat antibody would elicit an immune response against itself, influencing the course of disease; the rat anti-CD4 antibody prevents such a response to itself).
At 8 months of age, NZB×NZW mice were screened for proteinuria and randomized into 5 groups based on their proteinuria scores. At this age, disease is considered to be moderate-severe. At the onset of the experiment, each group of 19 mice was composed of the following distribution of protein concentrations in the urine: 32% at >300 mg/dl; 24% at 100-300 mg/dl; and 44% at 30-100 mg/dl. […] Mice were monitored for changes in urine protein concentration (e.g., proteinuria), Blood Urea Nitrogen (BUN), and survival.
as §1
Blood urea nitrogen was measured using a Cobas Integra® 400 chemistry analyzer (Roche Diagnostics, Basel, Switzerland) and urea detection reagent (also supplied by Roche Diagnostics) according to the manufacturer's instructions. […]

[3] = system: SJL/J mice with PLP-139-151 peptide induced EAE; assay: Relapsing and remitting EAE induced by PLP peptide in SJL/J mice (model of MS); assay type: in vivo, mouse; conditions: treatment initiated at day 14 (peak of disease), CD4 antibody = murinized YTS177; FIG. 12
Description: Experimental autoimmune encephalomyelitis (EAE) is an inflammatory condition of the central nervous system (CNS) with similarities to MS; in both diseases, demyelination results in impaired nerve conduction and paralysis. Relapsing and remitting EAE induced by injection of proteolipid protein (PLP) peptide in SJL/J mice provides a useful preclinical efficacy model of MS (see, e.g., Miller and Karpus (1996) “Experimental Autoimmune Encephalomyelitis in the Mouse” in Current Protocols in Immunology, Coligan et al. (eds.), John Wiley & Sons, Inc. and Sobel et al. (1990) “Acute experimental allergic encephalomyelitis in SJL/J mice induced by a synthetic peptide of myelin proteolipid protein” J Neuropathol Exp Neurol. 49(5):468-79).
FIG. 10 schematically illustrates progression of the disease over time after injection of the PLP peptide in this model. Injection at day 0 is followed by disease onset (days 0-15), remission (days 15-25), and relapse (day 25-termination of the study at days 60-70). […]
Numbers of effector/memory cells in the blood were determined by flow cytometry as follows. […]
To 1×10^6 cells, a saturating amount of fluorophore-conjugated antibodies were added and incubated on ice for 30 minutes, followed by washing with cold buffer. […] Samples were analyzed by flow cytometry on a FACSCalibur from BD Biosciences. […]

COc1c(C)c2c(c(O)c1C/C=C(\C)CCC(=O)OCCN1CCOCC1)C(=O)OC2 [MMF, 2-morpholinoethyl (E)-6-(1,3-dihydro-4-hydroxy-6-methoxy-7-methyl-3-oxo-5-isobenzofuranyl)-4-methyl-4-hexenoate]
blood B2 B cell numbers ([1]; 25 mg/kg MMF, may not be statistically significant, FIG. 20B): increase | proteinuria, multiple comparison analysis (Dunnett's method) vs control antibody ([1]; month 2 of treatment, MMF 50 or 25 mg/kg daily, FIG. 19): did not show statistically significant reduction in proteinuria | capacity to reverse severe proteinuria (mice reversed from 300 mg/dl proteinuria) ([1]; one month of treatment, MMF 25 or 50 mg/kg daily IP, YTS177 5 mg/kg 3x/week, FIG. 17B): not sufficient to reverse severe proteinuria significantly | mice exhibiting >300 mg/dl proteinuria (reversal of nephritis symptoms in very late stage disease) ([1]; over time after treatment, FIG. 17A): not observed

O=P1(N(CCCl)CCCl)NCCCO1 (stereo not drawn) [cyclophosphamide]
mice exhibiting >300 mg/dl proteinuria (reversal of nephritis symptoms in very late stage disease) [2]: not observed

glatiramer acetate
clinical score [3]: ineffective
